Reference: ChEMBL document CHEMBL4177616, “Potent anti-melanogenic activity and favorable toxicity profile of selected 4-phenyl hydroxycoumarins in the zebrafish model and the computational molecular modeling studies” (Bioorg Med Chem, 2017)
The source made the active and inactive calls. The calls are words filed in the database; no cut-off is given here.

What was measured:
[1] = organism: Danio rerio; test: Toxicity in wild type zebrafish embryos assessed as blood circulation at 25 ug/ml treated for 96 hrs post fertilization starting from 6 hrs post fertilization by inverted microscopic analysis relative to control; format: organism-based; conditions: in vivo
[2] = test system: Danio rerio; test: Toxicity in wild type zebrafish embryos assessed as pericardial edema at 25 ug/ml treated for 96 hrs post fertilization starting from 6 hrs post fertilization by inverted microscopic analysis relative to control; format: organism-based; conditions: in vivo
[3] = organism: Danio rerio; test: Toxicity in wild type zebrafish embryos assessed as eyes at 25 ug/ml treated for 96 hrs post fertilization starting from 6 hrs post fertilization by inverted microscopic analysis relative to control; format: organism-based; conditions: in vivo
[4] = Toxicity in wild type zebrafish embryos assessed as dead embryo at 25 ug/ml treated for 96 hrs post fertilization starting from 6 hrs post fertilization by inverted microscopic analysis relative to control; format: organism-based, Danio rerio; conditions: in vivo, read-out: Activity
[5] = organism: Danio rerio; test: Toxicity in wild type zebrafish embryos assessed as growth retardation at 25 ug/ml treated for 96 hrs post fertilization starting from 6 hrs post fertilization by inverted microscopic analysis relative to control; format: organism-based; conditions: in vivo
[6] = organism: Danio rerio; test: Toxicity in wild type zebrafish embryos assessed as notochord at 10 ug/ml treated for 96 hrs post fertilization starting from 6 hrs post fertilization by inverted microscopic analysis relative to control; format: organism-based; conditions: in vivo
[7] = organism: Danio rerio; test: Toxicity in wild type zebrafish embryos assessed as teratogenic embryo at 20 ug/ml treated for 96 hrs post fertilization starting from 6 hrs post fertilization by inverted microscopic analysis relative to control; format: organism-based; conditions: in vivo
[8] = organism: Danio rerio; test: Toxicity in wild type zebrafish embryos assessed as normal embryo at 20 ug/ml treated for 96 hrs post fertilization starting from 6 hrs post fertilization by inverted microscopic analysis relative to control; format: organism-based; conditions: in vivo
[9] = organism: Danio rerio; test: Toxicity in wild type zebrafish embryos assessed as heart beat at 10 ug/ml treated for 96 hrs post fertilization starting from 6 hrs post fertilization by inverted microscopic analysis relative to control; format: organism-based; conditions: in vivo
[10] = organism: Danio rerio; test: Toxicity in wild type zebrafish embryos assessed as eyes at 5 ug/ml treated for 96 hrs post fertilization starting from 6 hrs post fertilization by inverted microscopic analysis relative to control; format: organism-based; conditions: in vivo
[11] = organism: Danio rerio; test: Toxicity in wild type zebrafish embryos assessed as growth retardation at 20 ug/ml treated for 96 hrs post fertilization starting from 6 hrs post fertilization by inverted microscopic analysis relative to control; format: organism-based; conditions: in vivo
[12] = Toxicity in wild type zebrafish embryos assessed as dead embryo at 5 ug/ml treated for 96 hrs post fertilization starting from 6 hrs post fertilization by inverted microscopic analysis relative to control; format: organism-based, Danio rerio; conditions: in vivo, read-out: Activity
[13] = test system: Neutrophil; test: Cytotoxicity against mpx:GFP transgenic zebrafish 24 hrs post fertilization embryo neutrophils assessed as loss in neutrophil at 25 ug/ml relative to control; format: cell-based, Danio rerio
[14] = Toxicity in wild type zebrafish embryos assessed as dead embryo at 50 ug/ml treated for 96 hrs post fertilization starting from 6 hrs post fertilization by inverted microscopic analysis relative to control; format: organism-based, Danio rerio; conditions: in vivo, read-out: Activity
[15] = organism: Danio rerio; test: Toxicity in wild type zebrafish embryos assessed as blood circulation at 5 ug/ml treated for 96 hrs post fertilization starting from 6 hrs post fertilization by inverted microscopic analysis relative to control; format: organism-based; conditions: in vivo
[16] = organism: Danio rerio; test: Toxicity in wild type zebrafish embryos assessed as otoliths at 25 ug/ml treated for 96 hrs post fertilization starting from 6 hrs post fertilization by inverted microscopic analysis relative to control; format: organism-based; conditions: in vivo
[17] = organism: Danio rerio; test: Toxicity in wild type zebrafish embryos assessed as blood circulation at 20 ug/ml treated for 96 hrs post fertilization starting from 6 hrs post fertilization by inverted microscopic analysis relative to control; format: organism-based; conditions: in vivo
[18] = test system: Danio rerio; test: Toxicity in wild type zebrafish embryos assessed as yolk edema at 10 ug/ml treated for 96 hrs post fertilization starting from 6 hrs post fertilization by inverted microscopic analysis relative to control; format: organism-based; conditions: in vivo
[19] = organism: Danio rerio; test: Toxicity in wild type zebrafish embryos assessed as eyes at 20 ug/ml treated for 96 hrs post fertilization starting from 6 hrs post fertilization by inverted microscopic analysis relative to control; format: organism-based; conditions: in vivo
[20] = test system: Melanocyte; test: Cytotoxicity against wild type zebrafish embryo melanocytes assessed as change in morphology; format: cell-based, Danio rerio
[21] = organism: Danio rerio; test: Toxicity in wild type zebrafish embryos assessed as blood circulation at 10 ug/ml treated for 96 hrs post fertilization starting from 6 hrs post fertilization by inverted microscopic analysis relative to control; format: organism-based; conditions: in vivo
[22] = Toxicity in wild type zebrafish embryos assessed as dead embryo at 10 ug/ml treated for 96 hrs post fertilization starting from 6 hrs post fertilization by inverted microscopic analysis relative to control; format: organism-based, Danio rerio; conditions: in vivo, read-out: Activity
[23] = organism: Danio rerio; test: Toxicity in wild type zebrafish embryos assessed as normal embryo at 10 ug/ml treated for 96 hrs post fertilization starting from 6 hrs post fertilization by inverted microscopic analysis relative to control; format: organism-based; conditions: in vivo
[24] = organism: Danio rerio; test: Toxicity in wild type zebrafish embryos assessed as unhatched embryo at 25 ug/ml treated for 96 hrs post fertilization starting from 6 hrs post fertilization by inverted microscopic analysis relative to control; format: organism-based; conditions: in vivo
[25] = organism: Danio rerio; test: Toxicity in wild type zebrafish embryos assessed as unhatched embryo at 10 ug/ml treated for 96 hrs post fertilization starting from 6 hrs post fertilization by inverted microscopic analysis relative to control; format: organism-based; conditions: in vivo
[26] = organism: Danio rerio; test: Toxicity in wild type zebrafish embryos assessed as head malformation at 25 ug/ml treated for 96 hrs post fertilization starting from 6 hrs post fertilization by inverted microscopic analysis relative to control; format: organism-based; conditions: in vivo
[27] = test system: Melanocyte; test: Anti-melanogenic activity in wild type zebrafish embryo melanocytes assessed as decrease in pigmentation at 2.5 mg/ml treated for 72 hrs post fertilization starting from 6 to 24 hrs post fertilization; format: functional, cell-based; conditions: Danio rerio
[28] = test system: Melanocyte; test: Cytotoxicity against wild type zebrafish embryo melanocytes assessed as number of melanocyte at 2.5 mg/ml treated for 72 hrs post fertilization starting from 6 to 24 hrs post fertilization; format: cell-based, Danio rerio
[29] = organism: Danio rerio; test: Toxicity in wild type zebrafish embryos assessed as skeletal deformities at 25 ug/ml treated for 96 hrs post fertilization starting from 6 hrs post fertilization by inverted microscopic analysis relative to control; format: organism-based; conditions: in vivo
[30] = organism: Danio rerio; test: Toxicity in wild type zebrafish embryos assessed as heart beat at 50 ug/ml treated for 96 hrs post fertilization starting from 6 hrs post fertilization by inverted microscopic analysis relative to control; format: organism-based; conditions: in vivo
[31] = biological target: T1, Tyrosinase (Danio rerio) (UniProt A0A8M1PAD4); test: Inhibition of zebrafish embryo tyrosinase assessed as melanin production at 5 ug/ml after 48 hrs relative to control; values are per cent of control
T1 sequence (whole entry): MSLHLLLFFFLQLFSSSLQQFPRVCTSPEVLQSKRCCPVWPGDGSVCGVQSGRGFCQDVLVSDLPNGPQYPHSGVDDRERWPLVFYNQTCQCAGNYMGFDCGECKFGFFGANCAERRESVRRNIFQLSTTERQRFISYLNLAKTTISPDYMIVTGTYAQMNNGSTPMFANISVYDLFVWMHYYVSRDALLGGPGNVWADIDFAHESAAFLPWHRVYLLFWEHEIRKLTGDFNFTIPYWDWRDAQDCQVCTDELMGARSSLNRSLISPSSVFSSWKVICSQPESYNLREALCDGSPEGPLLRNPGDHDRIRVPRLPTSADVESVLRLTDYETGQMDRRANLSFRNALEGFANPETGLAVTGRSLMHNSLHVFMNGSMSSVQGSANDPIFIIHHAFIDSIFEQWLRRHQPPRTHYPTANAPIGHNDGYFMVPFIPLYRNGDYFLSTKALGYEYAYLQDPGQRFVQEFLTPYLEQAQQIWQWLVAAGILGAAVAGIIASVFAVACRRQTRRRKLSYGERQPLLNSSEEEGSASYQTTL

`Oc1ccc(O)cc1` [HYDROQUINONE] gave an Activity [1] of 100%, an Activity [2] of 100% and an Activity [3] of 100%. It also gave a mortality at 25 ug/ml [4] of 93.3%, an Activity [5] of 100% and an Activity [6] of 0%. It also gave an Activity [7] of 30%, an Activity [8] of 0% and an Activity [9] of 90%. For the same compound, the Activity [10] was 0%, the Activity [11] was 100% and the mortality at 5 ug/ml [12] was 0%. It also gave an Activity [13] of 30%, a mortality at 50 ug/ml [14] of 100% and an Activity [15] of 0%. The Activity [16] was 100%, the Activity [17] was 100% and the Activity [18] was 0%. For the same compound, the Activity [19] was 100%, the Activity [20] was “Dose-dependent effect and Tde” and the Activity [21] was 90%. For the same compound, the mortality at 10 ug/ml [22] was 63.3%, the Activity [23] was 0% and the Activity [24] was 100%. The Activity [25] was 0%.

In the case of `O=c1cc(CO)occ1O` [KOJIC ACID], the Activity [1] was 0%, the Activity [2] was 0% and the Activity [3] was 0%. The Activity [26] was 0%, the mortality at 25 ug/ml [4] was 0% and the Activity [5] was 0%. The Activity [27] was “Active”, the Activity [13] was “Non-Toxic” and the Activity [16] was 0%. The Activity [28] was “Non-Toxic”, the Activity [20] was “Dose-dependent effect and Tde” and the Activity [29] was 0%. It also gave an Activity [24] of 0%.

`O=c1cc(-c2ccccc2)c2ccc(O)cc2o1` gave an Activity [1] of 0%, an Activity [2] of 0% and an Activity [30] of 0%. It also gave an Activity [3] of 0%, an Activity [26] of 0% and a mortality at 25 ug/ml [4] of 0%. For the same compound, the melanin content % of control [31] was 93%, the Activity [5] was 0% and the Activity [6] was 0%. The Activity [7] was 0%, the Activity [8] was 100% and the Activity [9] was 0%. The Activity [27] was “Active”, the Activity [10] was 0% and the Activity [11] was 0%. For the same compound, the mortality at 5 ug/ml [12] was 0%, the Activity [13] was “Non-Toxic” and the mortality at 50 ug/ml [14] was 0%. The Activity [15] was 0%, the Activity [16] was 0% and the Activity [17] was 0%. The Activity [18] was 0%, the Activity [28] was “Non-Toxic” and the Activity [19] was 0%. For the same compound, the Activity [20] was “Dose-dependent effect and Tde”, the Activity [21] was 0% and the mortality at 10 ug/ml [22] was 0%. The Activity [23] was 100%, the Activity [29] was 0% and the Activity [24] was 0%. It also gave an Activity [25] of 0%.

For `O=c1cc(-c2ccccc2)c2c(O)cc(O)cc2o1`, the Activity [1] was 0%, the Activity [2] was 0% and the Activity [30] was 0%. For the same compound, the Activity [3] was 0%, the Activity [26] was 0% and the mortality at 25 ug/ml [4] was 0%. The melanin content % of control [31] was 63%, the Activity [5] was 0% and the Activity [6] was 0%. It also gave an Activity [7] of 0%, an Activity [8] of 100% and an Activity [9] of 0%. For the same compound, the Activity [27] was “Active”, the Activity [10] was 0% and the Activity [11] was 0%. For the same compound, the mortality at 5 ug/ml [12] was 0%, the Activity [13] was “Non-Toxic” and the mortality at 50 ug/ml [14] was 0%. It also gave an Activity [15] of 0%, an Activity [16] of 0% and an Activity [17] of 0%. For the same compound, the Activity [18] was 0%, the Activity [28] was “Non-Toxic” and the Activity [19] was 0%. For the same compound, the Activity [20] was “Dose-dependent effect and Tde”, the Activity [21] was 0% and the mortality at 10 ug/ml [22] was 0%. For the same compound, the Activity [23] was 100%, the Activity [29] was 0% and the Activity [24] was 0%. It also gave an Activity [25] of 0%.
